Results: article PMC9532951, “Identification and characterization of a novel SNAT2 (SLC38A2) inhibitor reveals synergy with glucose transport inhibition in cancer cells” (Frontiers in Pharmacology, 2022)
“And” between values parts separate entries of the source, which are not always exact repeats. Identical values can stand only once.

Experiments:
HCC1806 cells = test: [14C]alanine uptake in non-depleted HCC1806 cells; type: cell-based, human; conditions: amino acid replete HCC1806 cells
Procedure: (§1) Functional characterisation of plasma membrane transporters in human cancer cells was determined at 37°C using an array of radiolabelled amino acid substrates. Modified Hanks HEPES-buffered salts solution (mHBSS; 137 mM NaCl; 5.4 mM KCl; 2.7 mM K2HPO4; 1 mM CaCl2; 0.5 mM MgCl2; 0.44 mM KH2PO4; 0.4 mM MgSO4; 5 mM D-glucose; 5 mM HEPES; pH 7.4) was used to wash and incubate cells where sodium dependent transport was measured, while N-methyl-D-glucamine (NMDG) and potassium salts substituted sodium in NMDG mHBSS to measure sodium independent uptake. For the assay, cells were seeded in 35 mm dishes and, once confluent, were washed thrice with warm mHBSS solution and incubated with mHBSS containing an 100 µM amino acid at a final specific activity of ≥2000 cpm/nmol (U-[^14C]amino acids were from PerkinElmer). After 6 min, cells were washed thrice with ice-cold mHBSS, lysed with 500 µl of 0.1 M HCl, detached with a cell scraper and triturated. A 400 µl aliquot was used for scintillation counting, while the remainder was saved for protein mass quantification by Bradford assay. Transport rates were normalised to the protein content of the culture dish.

SNAT1/2 = test: [14C]glutamine uptake in HCC1806 cells; type: cell-based, human
Procedure: as §1

SMILES | inhibition of [14C]alanine uptake (HCC1806 cells) | inhibition of 100 µM glutamine uptake (SNAT1/2; 50 µM inhibitor, HCC1806 after 24 h amino acid depletion) | Glutamine uptake (nmol / mg protein x 6 min) (SNAT1/2; Figure 3D, replicates 1-3) | Glutamine uptake (SNAT1/2; AA+ (growth medium), 100 µM glutamine, replicates 1-3) | Glutamine uptake (SNAT1/2; AA- (starvation medium 24 h), 100 µM glutamine, replicates 1-3) | reduction of glutamine uptake (SNAT1/2; amino acid depleted HCC1806 cells (24 h), 100 µM glutamine) [%]
Cc1ccc(S(=O)(=O)N(C)c2ccsc2C(=O)NCc2ccccc2C(F)(F)F)cc1 [Compound 57_E, 3-(N-methyl (4-methylphenyl)sulfonamido)-N-(2-trifluoromethylbenzyl)thiophene-2-carboxamide] | about 10% | inhibited a significant fraction of the MeAIB-sensitive component of glutamine uptake | 46.6677 nmol / mg protein x 6 min and 48.4796 nmol / mg protein x 6 min and 48.0528 nmol / mg protein x 6 min |  |  | 
C[N+](C)(C)CC(=O)O [Betaine, betaine] | about 10% |  |  | 37.8707 nmol / mg protein x 6 min and 45.7014 nmol / mg protein x 6 min and 38.6268 nmol / mg protein x 6 min | 13.5306 nmol / mg protein x 6 min and 16.7838 nmol / mg protein x 6 min and 15.0446 nmol / mg protein x 6 min | 46
